Assay results: paper PMC11231141, “Ube3a unsilencer for the potential treatment of Angelman syndrome” (Nature Communications, 2024)

Assays:
paternal UBE3A-YFP = paternal UBE3A-YFP western blot after ASO-mediated knockdown of candidate targets; format: cell-based, mouse; details: for unsilencing of paternal Ube3a after ASO-mediated knockdown of TOP1: 10 µM ASO at DIV5, 1 µM (S)-PHA533533 or 0.3 µM topotecan 72 h from DIV7
Protocol: . […] Scrambled ASO together with DMSO treatment were used as controls for any non-specific effects.
The addition of TOP1 catalyzes supercoiled DNA substrate (lane 1) into slower migrating relaxed DNA (lane 2). […] . Following the treatment, the relative quantities of (h) Snord115, (i) Dlg2, (j) Nrxn3, (k) Malat1, (l) Pantr1, and (m) Airn transcripts were determined by quantitative RT-PCR (n = 4 experiments; mean ± SEM).
(§1) 2’ MOE gapmer antisense oligonucleotides (ASOs) designed to target mouse Cdk2 sequence […], Cdk5 sequence […], Top1 sequence […], and scrambled […] sequence as a negative control (Integrated DNA Technologies) were formulated in water and added to cultured cortical neurons grown on 6-well plates at DIV5 at a final concentration of 10 μM. Neurons were further cultured and treated at DIV7 with vehicle (0.1% DMSO) or the indicated compounds for 72 h. For western blot analysis, neurons were washed once with PBS and then lysed using RIPA buffer (50 mM Tris-HCl pH 8.0, 150 mM NaCl, 1% NP−40, 0.5% Na-deoxycholate, 0.5% SDS) and protease inhibitor cocktail (P8340, MilliporeSigma) on ice.

UBE3A mRNA [1] = tested on: UBE3A mRNA
Excerpt: The specificity of the amplification products was verified by melting curve analysis.

UBE3A protein [2] = assay: western blot of UBE3A protein in HEK293T cells; format: cell-based, human; details: 1 µM, 48 h
Protocol: Human HEK293T cells were treated
Following the treatment, the
individual wells per treatment, as depicted in ( c). All data were normalized to GAPDH/ GAPD H
dimethyl sulfoxide; kDA – kilodalton. Source data and comprehensive statistics, including F-values, […]

CDK2/cyclin E = tested on: CDK2/cyclin E; design: method as in PMID 15828833; details: read-out: IC50 against CDK2/cyclin E; cited from earlier work
CDK5/p25 complex = tested on: CDK5/p25 complex; design: method as in PMID 15828833; details: read-out: IC50 against CDK5/p25 complex; cited from earlier work
[3] = cytotoxicity (% viable DAPI/NeuN neurons vs DMSO) in mouse primary neurons; format: cell-based; details: primary cortical neurons from E15.5 mouse embryos, mean ± SEM, n = 3
Protocol: Immunofluorescence for high-content imaging analysis was performed as previously described with slight modifications. Following drug treatment at DIV7, primary neurons were fixed at DIV10 with 4% paraformaldehyde in PBS at room temperature (RT) for 10 min. After three brief washes in PBS, neurons were permeabilized with PBS/1% Triton-X-100 at RT for 10 min, followed by blocking with PBS including 5% normal goat serum and 0.2% Triton-X-100 (NGST) at RT. […] All acquired images were analyzed by CellProfiler[48]. The mean GFP signal from each drug-treated well was normalized to the average mean GFP signal from DMSO-treated neurons. […] Fluorescent images were acquired using a Nikon Ti2 eclipse fluorescence microscope (Nikon Instruments Inc.) and analyzed using Nikon NIS-Elements software (Nikon Instruments Inc.). Antibody-enhanced UBE3A-YFP fluorescence intensities were determined from DAPI and NeuN double-positive neurons in drug-treated wells and normalized to neurons in DMSO-treated wells. The cytotoxicity of a compound was determined by calculating the percentage of neurons (DAPI and NeuN double-positive cells) alive in drug-treated wells compared to the DMSO-treated wells. For determining the effectiveness of unsilencing, the percent neurons expressing GFP signal in neurons (DAPI and NeuN double-positive cells) in drug-treated wells was thresholded such that the percent GFP positive neurons in DMSO-treated wells was set to ~5%. Concentrations where more than 10% of neurons were dead compared to DMSO-treated wells were manually removed and the last included data point was set as a maximum efficacy. Sigmoidal curve fitting for the dose-response analysis was performed using GraphPad Prism software version 8.0 (GraphPad Software).

Ube3a-ATS = assay: quantitative RT-PCR of Ube3a-ATS in Ube3a m-/p+ primary neurons; format: cell-based, mouse; details: 72 h at DIV7; 0.3 µM topotecan, 1 µM (S)- or (R)-PHA533533, 0.1 µM 2, 0.1 µM 3, 0.3 µM (±)-4, 5 µM (S,R)-5
Snord115 = details: 72 h at DIV7; 0.3 µM topotecan, 1 µM (S)- or (R)-PHA533533, 0.1 µM 2, 0.1 µM 3, 0.3 µM (±)-4, 5 µM (S,R)-5
Protocol: (§2) Next, 1 ml of Neurobasal Plus medium (A3582901, ThermoFisher) containing 5% FBS (TMS-013-B; MilliporeSigma) was added to the cortical mixture to deactivate the papain and subsequently triturated. […] Isolated cortical neurons were plated onto poly-D-lysine coated 384-well plates at 2 × 10^4 cell/well for screening and dose-response assays, or 6-well plates at 1 × 10^6 cell/well for molecular and biochemical assays (western blot, ASO-dependent knock-down, and quantitative RT-PCR).
(§3) For RNA isolation, cultured cortical neurons were lysed using 350 μl of RLT lysis buffer (Qiagen) per well on a 6-well plate. For isolating RNA from mouse brain tissue, microdissected brain regions were snap-frozen in liquid nitrogen and stored at −80 °C until the day of RNA extraction, and then lysed using RLT lysis buffer containing 1% of β-mercaptoethanol. Total RNA was extracted from both cultured cells and brain tissue using RNeasy Mini kit (Qiagen). cDNA was synthesized from 1 μg of total RNA using qScript cDNA Supermix (Quantabio). 1/25 of synthesized cDNA was used per qPCR reaction together with PowerUp SYBR Green Master Mix (A25742, Applied Biosystems) and a specific primer pair (Table 2). qPCR was performed in a QuantStudio 5 Real-Time PCR system (Applied Biosystems). The specificity of the amplification products was verified by melting curve analysis. All qPCRs were conducted in technical triplicates, and the results were averaged for each sample, normalized to Gapdh expression, and analyzed using the comparative CT method (∆∆CT).

Snord116 = details: 72 h at DIV7; 0.3 µM topotecan, 1 µM (S)-PHA533533, 0.1 µM 2, 0.1 µM 3, 0.3 µM (±)-4, 5 µM (S,R)-5
Protocol: as §2, §3

Snrpn = details: 72 h at DIV7; 0.3 µM topotecan, 1 µM (S)-PHA533533, 0.1 µM 2, 0.1 µM 3, 0.3 µM (±)-4, 5 µM (S,R)-5
Protocol: as §2, §3

Ube3a mRNA [4] = details: Ube3a m-/p+ neurons, 72 h at DIV7; 0.3 µM topotecan, 1 µM (S)- or (R)-PHA533533, 0.1 µM 2, 0.1 µM 3, 0.3 µM (±)-4, 5 µM (S,R)-5
Protocol: as §2, §3

UBE3A protein [5] = assay: western blot of UBE3A protein in Ube3a m-/p+ primary neurons; format: cell-based, mouse; details: 72 h at DIV7, 0.3 µM topotecan, 1 µM (S)-PHA533533, 0.1 µM 3, 0.3 µM (±)-4
Protocol: as §1

| Structure (SMILES) | unsilencing of paternal UBE3A-YFP after ASO-mediated knockdown of CDK5 (paternal UBE3A-YFP; 10 µM ASO at DIV5, 1 µM (S)-PHA533533 72 h from DIV7) | unsilencing of paternal Ube3a after ASO-mediated knockdown of TOP1 (paternal UBE3A-YFP) | UBE3A mRNA levels vs DMSO (UBE3A mRNA [1]) | UBE3A protein levels vs DMSO (UBE3A protein [2]) | IC50 (CDK2/cyclin E) | IC50 (CDK5/p25 complex) | CC50 at 72 h [3] | relative quantity of Ube3a-ATS vs DMSO (Ube3a-ATS) | relative quantity of Snord115 vs DMSO (Snord115) | relative quantity of Snord116 vs DMSO (Snord116) | relative quantity of Snrpn vs DMSO (Snrpn) | Ube3a mRNA levels vs DMSO (Ube3a mRNA [4]) | UBE3A protein levels vs DMSO (UBE3A protein [5]) |
| --- | --- | --- | --- | --- | --- | --- | --- | --- | --- | --- | --- | --- | --- |
| C[C@H](C(=O)Nc1cc(C2CC2)[nH]n1)c1ccc(N2CCCC2=O)cc1 [(S)-PHA533533] | nor did it occlude the unsilencing | did not affect | does not affect | does not affect | 55 nM | 65 nM | – | – | – | – | – | – | – |
| CC[C@@]1(O)C(=O)OCc2c1cc1n(c2=O)Cc2cc3c(CN(C)C)c(O)ccc3nc2-1 [Topotecan, reference compound] | – | almost completely occluded | – | – | – | – | 2130 ± 620 nM | downregulated | significantly reduced | without affecting | significantly reduced | significantly increased | significantly increased |
